From ChEMBL document CHEMBL4219226, “Terpenoids isolated from Chinese liverworts Lepidozia reptans and their anti-inflammatory activity” (Bioorg Med Chem, 2018) come the findings set out here.

Active and inactive are the calls of the source. The calls are words filed in the database; no cut-off is given here.

Test [1] concerns RAW264.7. The test can be described thus: Antiinflammatory activity in mouse RAW264.7 cells assessed as inhibition of LPS-induced nitric oxide production after 24 hrs by Griess method. It is filed as functional, cell-based. To be noted: RAW264.7, 24 h.
In test [2] the test system is THP-1. Briefly: Antiinflammatory activity in human THP1 cells assessed as inhibition of LPS-induced […] mRNA level at 12 to 25 uM preincubated for 1 hr followed by LPS stimulation measured after 12 hrs by qPCR method. The format is functional, cell-based. Background: Quantitative PCR measures a nucleic acid by following its amplification.
Test [3] deals with RAW264.7. The test can be described thus: Cytotoxicity against mouse RAW264.7 cells assessed as reduction in cell viability by MTT assay. The format is cell-based. On the technique in general: Tetrazolium dyes change colour on reduction, which living cells bring about.
Test [4] has as its target T1, Transcription factor E3 (Homo sapiens) (UniProt P19532).
T1 sequence (whole entry): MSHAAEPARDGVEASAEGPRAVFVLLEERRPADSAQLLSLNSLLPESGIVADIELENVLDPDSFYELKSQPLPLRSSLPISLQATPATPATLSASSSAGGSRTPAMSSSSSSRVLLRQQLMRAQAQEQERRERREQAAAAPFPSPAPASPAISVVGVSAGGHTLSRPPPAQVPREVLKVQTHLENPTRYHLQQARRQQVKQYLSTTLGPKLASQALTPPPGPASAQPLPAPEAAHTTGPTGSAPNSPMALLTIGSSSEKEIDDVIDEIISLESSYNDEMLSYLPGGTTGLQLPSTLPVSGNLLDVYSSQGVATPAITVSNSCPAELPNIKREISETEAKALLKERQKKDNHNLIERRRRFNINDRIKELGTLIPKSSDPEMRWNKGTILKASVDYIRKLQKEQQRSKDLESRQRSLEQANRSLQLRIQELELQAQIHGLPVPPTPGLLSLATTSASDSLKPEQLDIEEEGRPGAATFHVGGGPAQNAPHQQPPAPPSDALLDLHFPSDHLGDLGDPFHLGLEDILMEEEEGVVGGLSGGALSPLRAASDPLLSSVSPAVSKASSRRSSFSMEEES
Briefly: Inhibition of LPS-induced TFE3 nuclear translocation in human THP1 cells at 12 to 25 uM preincubated for 1 hr followed by LPS stimulation measured after 12 hrs by Western blot method. It is filed as cell-based. For orientation: A western blot detects proteins with antibodies after separation by electrophoresis.

Test [5] concerns THP-1. The test can be described thus: Inhibition of LPS-induced STAT3 nuclear translocation in human THP1 cells at 50 to 100 uM preincubated for 1 hr followed by LPS stimulation measured after 12 hrs by Western blot method. It is filed as functional, cell-based.
The target in test [6] is Transcription factor p65 (Homo sapiens) (UniProt Q04206). Briefly: Inhibition of LPS-induced NFkB p65 phosphorylation in cytoplasm of human THP1 cells preincubated for 1 hr followed by LPS stimulation measured after 12 hrs by Western blot method.
For test [7], the target named is T1, Transcription factor E3 (Homo sapiens). Briefly: Inhibition of LPS-induced TFE3 nuclear translocation in human THP1 cells at 50 to 100 uM preincubated for 1 hr followed by LPS stimulation measured after 12 hrs by Western blot method. The format is cell-based.
For test [8], the system named is THP-1. The test can be described thus: Antiinflammatory activity in human THP1 cells assessed as inhibition of LPS-induced IL-6 mRNA level preincubated for 1 hr followed by LPS stimulation measured after 12 hrs by qPCR method. The format is functional, cell-based.
In test [9] the target is T1, Transcription factor E3 (Homo sapiens). Briefly: Inhibition of GFP-fused TFE3 (unknown origin) expressed in HEK293T cells assessed as reduction in LPS-induced TFE3 nuclear translocation at 100 uM preincubated for 1 hr followed by LPS stimulation measured after 12 hrs by DAPI staining based confocal microscopic method. The format is cell-based.
Test [10] has as its target Transcription factor p65 (Homo sapiens) (UniProt Q04206). Briefly: Inhibition of GFP-fused NFkB p65 (unknown origin) expressed in HEK293T cells assessed as reduction in LPS-induced p65 nuclear translocation at 100 uM preincubated for 1 hr followed by LPS stimulation measured after 12 hrs by DAPI staining based confocal microscopic method. It is filed as cell-based.
Test [11] has as its system THP-1. Briefly: Antiinflammatory activity in human THP1 cells assessed as inhibition of LPS-induced TNF-alpha mRNA level preincubated for 1 hr followed by LPS stimulation measured after 12 hrs by qPCR method. The format is functional, cell-based.
In test [12] the test system is THP-1. Briefly: Inhibition of LPS-induced STAT1 nuclear translocation in human THP1 cells at 50 to 100 uM preincubated for 1 hr followed by LPS stimulation measured after 12 hrs by Western blot method. It is filed as functional, cell-based.
For test [13], the system named is THP-1. The test can be described thus: Inhibition of LPS-induced TFEB nuclear translocation in human THP1 cells at 50 to 100 uM preincubated for 1 hr followed by LPS stimulation measured after 12 hrs by Western blot method. It is filed as functional, cell-based.
The subject of test [14] is THP-1. The test can be described thus: Antiinflammatory activity in human THP1 cells assessed as inhibition of LPS-induced COX-2 protein level at 50 to 100 uM preincubated for 1 hr followed by LPS stimulation measured after 12 hrs by Western blot method. It is filed as functional, cell-based.
For test [15], the system named is THP-1. The test can be described thus: Antiinflammatory activity in human THP1 cells assessed as inhibition of LPS-induced IL-beta mRNA level preincubated for 1 hr followed by LPS stimulation measured after 12 hrs by qPCR method. It is filed as functional, cell-based.
The subject of test [16] is THP-1. The test can be described thus: Antiinflammatory activity in human THP1 cells assessed as inhibition of LPS-induced IL-alpha mRNA level preincubated for 1 hr followed by LPS stimulation measured after 12 hrs by qPCR method. The format is functional, cell-based.
Test [17] relates to THP-1. The test can be described thus: Antiinflammatory activity in human THP1 cells assessed as inhibition of LPS-induced […] mRNA level at 50 to 100 uM preincubated for 1 hr followed by LPS stimulation measured after 12 hrs by qPCR method. It is filed as functional, cell-based.
Test [18] has as its target Transcription factor p65 (Homo sapiens) (UniProt Q04206). The test can be described thus: Inhibition of LPS-induced NFkB p65 nuclear translocation in human THP1 cells preincubated for 1 hr followed by LPS stimulation measured after 12 hrs by Western blot method. It is filed as cell-based.

Sequence of Transcription factor p65 (Homo sapiens) (Q04206 whole entry, the tested form may be a part): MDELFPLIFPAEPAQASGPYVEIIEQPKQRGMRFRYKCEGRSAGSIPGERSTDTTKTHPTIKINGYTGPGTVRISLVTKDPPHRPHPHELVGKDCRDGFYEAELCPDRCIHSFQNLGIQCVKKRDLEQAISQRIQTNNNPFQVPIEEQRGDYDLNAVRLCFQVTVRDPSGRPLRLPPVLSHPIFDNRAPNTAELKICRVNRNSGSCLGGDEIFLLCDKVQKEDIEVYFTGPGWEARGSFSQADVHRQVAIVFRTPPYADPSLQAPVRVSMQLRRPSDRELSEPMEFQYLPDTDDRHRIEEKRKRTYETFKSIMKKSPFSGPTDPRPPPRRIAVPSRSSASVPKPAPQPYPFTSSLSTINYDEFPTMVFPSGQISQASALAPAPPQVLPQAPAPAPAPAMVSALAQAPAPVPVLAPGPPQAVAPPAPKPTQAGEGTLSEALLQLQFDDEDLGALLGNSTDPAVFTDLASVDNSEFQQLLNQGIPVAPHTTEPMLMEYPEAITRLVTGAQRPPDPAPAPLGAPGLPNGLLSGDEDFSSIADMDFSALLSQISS

A word on the IC50: it is the concentration needed to halve the response being measured. Turning to `O=c1cc(-c2ccc(O)c(O)c2)oc2cc(O)cc(O)c12` [LUTEOLIN], the values for the IC50 with RAW264.7 [1] and with RAW264.7 [3] were 14.4 µM and greater than 50 µM, respectively. Besides, the inhibition result (in the test on THP-1 [2]; in test [4]) was “Active” each time.
On to `C/C1=C/C(=O)C/C(C)=C/C[C@]2(C)CC[C@](O)(C(C)C)[C@H]2CC1`, for which the inhibition entry with THP-1 [5], with THP-1 [12] and in the test on THP-1 [13] was “inactive” throughout. Also, the inhibition entry (in [6]; with THP-1 [8]; in the test with THP-1 [11]; with THP-1 [15]; in the test with THP-1 [16]; in test [18]) was “Dose-dependent effect” throughout. For the same compound, the inhibition entry (in [7]; in test [9]; in test [10]; in the test with THP-1 [14]; with THP-1 [17]) was “Active” in each case. In addition, the IC50 with RAW264.7 [1] was 34.9 µM; in the test on RAW264.7 [3] it was greater than 100 µM.
Turning to `CC1=C(C)C(=O)C(CC[C@@](C)(O)CCC[C@@H](C)CCC[C@@H](C)CCCC(C)C)=C(C)C1=O`, the IC50 in the test with RAW264.7 [1] and with RAW264.7 [3] was greater than 100 µM each time.
